Reference: ChEMBL document CHEMBL3603772, “Chemical Biology of Leucine-Rich Repeat Kinase 2 (LRRK2) Inhibitors” (J Med Chem, 2015)

Tests used:
[1] = molecular target: Leucine-rich repeat serine/threonine-protein kinase 2 (Homo sapiens, UniProt Q5S007); assay: Inhibition of LRRK2 (unknown origin)
[2] = Clearance in mouse at 1 mg/kg, iv; format: ADME, organism-based; conditions: in vivo
[3] = tested on: Brain; assay: Druguptake in mouse brain at 1 mg/kg, iv; format: ADME, organism-based; conditions: in vivo
[4] = Inhibition of LRRK2 G2019S mutant-induced neuronal toxicity in rat cortical neurons
[5] = molecular target: Leucine-rich repeat serine/threonine-protein kinase 2 (Homo sapiens, UniProt Q5S007, G2019S); assay: Inhibition of LRRK2 G2019S mutant in human HEK293 cells assessed as phosphorylation at Ser935; format: cell-based
Chain of Leucine-rich repeat serine/threonine-protein kinase 2 (Homo sapiens, UniProt Q5S007, G2019S) (Q5S007 whole entry G2019S): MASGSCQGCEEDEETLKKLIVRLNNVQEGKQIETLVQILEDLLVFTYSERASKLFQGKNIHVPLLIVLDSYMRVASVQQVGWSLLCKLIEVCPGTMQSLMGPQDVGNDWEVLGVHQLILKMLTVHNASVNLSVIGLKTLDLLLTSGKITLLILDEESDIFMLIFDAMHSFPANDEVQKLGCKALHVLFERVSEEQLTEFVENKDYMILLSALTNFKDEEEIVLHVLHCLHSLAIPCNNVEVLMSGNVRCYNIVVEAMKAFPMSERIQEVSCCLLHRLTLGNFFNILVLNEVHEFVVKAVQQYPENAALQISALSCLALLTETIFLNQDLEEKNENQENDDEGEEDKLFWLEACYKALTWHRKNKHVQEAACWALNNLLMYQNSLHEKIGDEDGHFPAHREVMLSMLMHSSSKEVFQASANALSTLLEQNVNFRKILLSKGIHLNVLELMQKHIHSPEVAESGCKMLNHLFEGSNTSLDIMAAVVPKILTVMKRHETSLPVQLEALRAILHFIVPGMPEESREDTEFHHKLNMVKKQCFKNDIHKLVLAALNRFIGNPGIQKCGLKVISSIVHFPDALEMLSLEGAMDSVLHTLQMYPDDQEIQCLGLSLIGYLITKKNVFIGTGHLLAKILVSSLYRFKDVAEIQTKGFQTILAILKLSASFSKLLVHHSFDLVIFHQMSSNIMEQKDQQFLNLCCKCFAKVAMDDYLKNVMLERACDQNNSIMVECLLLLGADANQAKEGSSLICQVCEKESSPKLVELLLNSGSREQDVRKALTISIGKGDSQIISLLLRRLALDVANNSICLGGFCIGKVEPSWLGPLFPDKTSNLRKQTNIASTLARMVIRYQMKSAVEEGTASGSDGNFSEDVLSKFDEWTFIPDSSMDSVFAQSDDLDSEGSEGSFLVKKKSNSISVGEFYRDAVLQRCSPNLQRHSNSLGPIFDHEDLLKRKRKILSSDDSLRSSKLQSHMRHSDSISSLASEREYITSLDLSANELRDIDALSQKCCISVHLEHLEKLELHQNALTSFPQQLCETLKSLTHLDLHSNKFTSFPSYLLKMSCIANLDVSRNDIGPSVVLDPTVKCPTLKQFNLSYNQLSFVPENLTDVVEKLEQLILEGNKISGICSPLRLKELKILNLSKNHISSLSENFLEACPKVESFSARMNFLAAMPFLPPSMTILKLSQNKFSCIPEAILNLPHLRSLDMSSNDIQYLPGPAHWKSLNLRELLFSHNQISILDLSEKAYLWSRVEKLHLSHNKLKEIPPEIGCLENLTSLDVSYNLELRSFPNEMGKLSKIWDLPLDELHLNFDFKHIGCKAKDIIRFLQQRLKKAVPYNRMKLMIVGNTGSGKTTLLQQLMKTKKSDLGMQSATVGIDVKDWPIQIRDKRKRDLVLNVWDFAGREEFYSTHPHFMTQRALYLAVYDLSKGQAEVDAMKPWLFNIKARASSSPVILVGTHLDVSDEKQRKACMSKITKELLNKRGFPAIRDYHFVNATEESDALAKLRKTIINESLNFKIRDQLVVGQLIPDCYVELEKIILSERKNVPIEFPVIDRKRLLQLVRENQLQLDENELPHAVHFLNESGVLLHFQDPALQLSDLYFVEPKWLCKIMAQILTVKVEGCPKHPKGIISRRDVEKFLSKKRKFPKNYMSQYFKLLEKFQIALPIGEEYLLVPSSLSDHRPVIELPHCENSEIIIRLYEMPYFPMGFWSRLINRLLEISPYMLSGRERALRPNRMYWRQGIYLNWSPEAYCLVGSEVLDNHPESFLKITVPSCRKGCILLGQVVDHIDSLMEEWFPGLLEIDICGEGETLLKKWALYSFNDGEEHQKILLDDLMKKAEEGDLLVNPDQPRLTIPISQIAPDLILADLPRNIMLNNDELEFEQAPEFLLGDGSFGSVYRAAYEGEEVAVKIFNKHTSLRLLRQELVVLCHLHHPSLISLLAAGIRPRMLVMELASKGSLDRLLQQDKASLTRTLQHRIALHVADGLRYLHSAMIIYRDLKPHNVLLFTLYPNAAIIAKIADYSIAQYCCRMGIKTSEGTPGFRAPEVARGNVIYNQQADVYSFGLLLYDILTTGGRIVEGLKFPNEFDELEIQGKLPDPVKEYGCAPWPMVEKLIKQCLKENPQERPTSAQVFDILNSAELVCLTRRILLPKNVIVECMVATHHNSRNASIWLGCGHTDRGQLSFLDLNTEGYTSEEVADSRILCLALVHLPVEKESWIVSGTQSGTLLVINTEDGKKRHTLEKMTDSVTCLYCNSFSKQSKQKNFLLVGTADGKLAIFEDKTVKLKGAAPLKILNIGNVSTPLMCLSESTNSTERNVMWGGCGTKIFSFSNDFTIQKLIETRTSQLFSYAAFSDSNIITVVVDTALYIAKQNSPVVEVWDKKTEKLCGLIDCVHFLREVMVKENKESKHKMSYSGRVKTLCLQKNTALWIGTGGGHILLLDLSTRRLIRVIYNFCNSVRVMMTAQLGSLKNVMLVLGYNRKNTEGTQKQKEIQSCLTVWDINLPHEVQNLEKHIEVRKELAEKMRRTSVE

Chain of Leucine-rich repeat serine/threonine-protein kinase 2 (Homo sapiens, UniProt Q5S007) (Q5S007 whole entry): as the sequence (Q5S007 whole entry G2019S) above, with S2019G counted along it

Row | IC50 [1] | clearance [2] | Drug uptake [3] | IC50 [5] | SMILES | EC50 [4]
1 | 7 nM | 2.3 mL/min/kg | 4% |  | COc1cc(N2CCOCC2)ccc1Nc1ncc(F)c(Nc2ccccc2NS(C)(=O)=O)n1 | 100 nM
2 | 6 nM |  |  | 94 nM | CN1CCN(c2ccc(OCc3ccccc3)c(C(=O)Nc3cccnc3)c2)CC1 | 

Row | SMILES | IC50 [1] | clearance [2] | Drug uptake [3] | IC50 [5] | EC50 [4]
3 | COc1cc(C(=O)N2CCC(N3CCN(C)CC3)CC2)ccc1Nc1ncc2c(n1)N(C)c1ccccc1C(=O)N2C | 6 nM |  |  |  | 
